The subject of series [1] is CLN3^Δex7/8 neural stem cells. Put plainly: Differentiation of CLN3^Δex7/8 neural stem cells into neurons. It is filed as cell-based, human. The following applies: after 17 days of differentiation. On the procedure:
When the density of human induced neural stem cells reached 85-95%, passage was performed at 1:20-1:50 according to the above method. The medium on the day of passage (recorded as Day 1 of differentiation) was human neural stem cell maintenance medium with 10 μM Y27632, which was removed after 24 h, and culture continued in human neural stem cell maintenance medium for 48 hours. On Day 4 of differentiation, the medium was changed to human neuronal differentiation medium (human neuronal medium: DMEM/F12 medium+10 ng/ml hBDNF+10 ng/ml hGDNF+300 ng/mL cAMP+0.2 mM vitamin C+1×N2+1×B27+1% Penicillin/Streptomycin), with medium change halfly every other day. Human neurons highly expressing MAP2 and TUJ1 proteins were obtained on Day 17 of differentiation. Thereafter, the human neurons could be continuously cultured in the human neuron differentiation medium, with medium change halfly every other day.
Starting from the same number of human neural stem cells induced to differentiate into human neurons, CLN3^Δex7/8 neural stem cells eventually generated a lower number of neurons than wild-type cells. During the process of neurons differentiation, the seven small molecule compounds obtained above were each added to the culture medium and observed for their effects on the differentiation process of CLN3^Δex7/8 neural stem cells into neurons.

A further series concerns mice's neurons. In words: qRT-PCR of autophagy-related and lysosomal genes in mouse neurons. It is filed as cell-based. Conditions: 6 hours. On the procedure: (§1) The cells in the cell-culture dish were collected, extracted using AxyPrep Total RNA Mini Prep Kit or Qiagen AxyPrep Total RNA Mini Prep Kit, and the extracted RNA concentration is measured using Nanodrop; the extracted mRNA was reverse transcribed into cDNA by Transgen's EasyScript® One-Step gDNA Removal and cDNA Synthesis SuperMix and the primers used for reverse transcription were Oligo dT primers; the completion of reverse transcription followed by qRT-PCR reaction through PerfectStart™ Green qPCR SuperMix to detect the expression of the target gene; the qRT-PCR reaction was performed on the Bio-Rad CFX96 Real-Time PCR system; see Table 2 and Table 3 for the 20 μL qRT-PCR reaction system and reaction procedures; data analysis was performed in Prism 7 software using the 2^−ΔΔCt process with GAPDH as internal reference for relative quantification of the expression of the target gene.
After treating primary (a) neural stem cells and (b) neurons of Cln3 KO) mice for 6 hours, the mRNA was extracted from the cells, reverse-transcribed into cDNA, and transcription levels of autophagy- and lysosome-related genes were detected using qRT-PCR (n=3).
It was speculated from this that the known target FXR of Compound G was expressed at low or no levels in neural lineage cells. […]
For orientation: Real-time PCR tracks product formation cycle by cycle.

Series [2] deals with CLN3^Δex7/8 neural stem cells. In words: Annexin V and propidium iodide apoptosis staining, flow cytometry. It is filed as cell-based, human. Conditions: treatment for 48 hours. On the procedure: In analyzing the mean fluorescence intensity of neural stem cells and neuronal staining or single cell establishment of NRK cells, flow cytometry was used: the cell medium was aspirated off, after wash with dPBS once, the digestive enzyme corresponding to the cell type was added to digest into single cells; the supernatant was removed by centrifugation, and the cells were resuspended with 1 mL of fresh medium; the cell suspension with filtered through 40 μm filter membrane and the single cell filtrate was collected; the single cell filtrate was transferred to a flow tube and analyzed or sorted using BD FACS Aria III; in the analysis, the fluorescence intensity of 1×10^4 cells for each sample was analyzed to obtain the mean fluorescence intensity (MFI); for sorting, cells were received in 96 well plates with medium, one cell per well to establish a cell line.
Then, whether compound G causes cytotoxicity in neural stem cells was examined. Cell apoptosis was detected after compound G treatment with Annexin V and propidium iodide (PI) staining and analyzed with flow cytometry. Annexin V positive and PI negative represented early apoptotic cells, while Annexin V positive and PI positive represented late apoptotic cells.

Series [3] concerns CLN3^Δex7/8 human neural stem cells. In words: Tandem LC3 autophagic flux in human neural stem cells. The class given is cell-based. From the text:
After lysosomal function defects were detected in CLN3^Δex7/8 neural stem cells and neurons, autophagic flux in the cells was further examined. Equal amounts of lentivirus packaged with tandem LC3 plasmid were used to infect wild-type and CLN3^Δex7/8 cells to label intracellular autophagosomes.
Autophagosomes in neural stem cells were labeled using tandem LC3, and the number of autophagosomes with green fluorescence and those with red fluorescence only were observed by high-intensity laser confocal microscope.

Series [4] deals with APP-gene mutant human neurons. Put plainly: Human neuron model of Alzheimer's dementia (Aβ immunofluorescence, Aβ42 ELISA). The class given is cell-based. From the text: FIG. 44: Compound G reduced Aβ protein storage and secretion levels of toxic Aβ42 in APP mutant neurons. (a) Immunofluorescence staining, for detecting Compound G-treated APP mutant neurons for abnormal accumulation of Aβ protein and (b) statistics of Aβ plaque area, and the scale bar was 50 μm. (c) ELISA tests, for measuring the effect of Compound G on the secretion level of toxic Aβ42 of APP mutant neurons.
The present disclosure detected the therapeutic effect of the treatment of Compound G on Alzheimer's dementia. We directed the differentiation of human embryonic stem cells with mutations in APP gene into human neurons in vitro and constructed an in vitro human neuron model of Alzheimer's dementia.
(In an ELISA, binding on a coated surface is turned into a signal by an enzyme label.)

For a further series, the system named is Cln3 KO mice. Put plainly: Open field test. Conditions: 4-5 months old Cln3 KO mice, within 10 minutes. It is filed as in vivo, mouse. On the procedure: Open field tests were conducted on mice using blue boxes measuring 50 cm×50 cm×40 cm, with specific steps as follows: the mice to be tested were kept in single cages for more than 1 week to adapt to the environment; the central 25 cm×25 cm area of the box was divided into a central area. The mice were placed gently in the central area facing away from the experimenter, and the video device was started to record the movement track of the mice within 10 minutes; the boxes were thoroughly wiped twice with 75% ethanol to eliminate the odor of the mouse, and then the next mouse was placed for movement track record within 10 minutes; the movement track of mice was analyzed with the Noldus software, and the analysis indicators included the movement speed and total movement distance of mice. The number of times the mice stood upright on their hind legs within 10 minutes was manually counted by the experimenter.
[…] experiments were conducted on 4-5 months old wild-type mice, Cln3 KO mice, and Compound G-treated Cln3 KO mice. The mouse was gently placed in the mine field, it was allowed to move freely, and the route, distance and speed of its movement within 10 minutes were recorded.

Series [5] deals with mouse tail tip fibroblasts (TTF). Put plainly: qRT-PCR of autophagy-related and lysosomal genes in mouse tail tip fibroblasts. The class given is cell-based. How it is done:
as §1
Compound G was added to the mouse tail tip fibroblasts (TTF), after incubation for 6 hours, mRNA was extracted, and the transcription level of the autophagy-related genes and the lysosomal genes in the cells was detected.
First, lentivirus packaged with control shRNA or FXR shRNA-2 was used to infect the mouse TTF. After treatment with Compound G, mRNA was extracted for detection of gene transcription.

Turning to `C/C=C1\C(=O)C[C@H]2[C@@H]3CCC4=CC(=O)CC[C@]4(C)[C@H]3CC[C@]12C` [Compound G, (Z)-guggulsterone], in series [1], the “MAP2 and TUJ1-positive neurons generated from the same number of cells” value is “generate more MAP2 and TUJ1-positive neurons”. In addition, in the series with mice's neurons, the “transcription level of the autophagy-related genes or the lysosomal genes” value was “did not significantly increase”. For the same compound, in series [2], the “proportions of apoptotic cells (Annexin V / PI)” value is reported as “did not significantly change the proportions of apoptotic cells”. Further, the “number of red fluorescence single-positive autophagosomes” value in series [3] is “increased the number of red fluorescence single-positive autophagosomes”. Also, the “deposition of Aβ plaques” value in series [4] is recorded as “significant reduction”. For the same compound, in series [4] (ELISA), the “level of toxic Aβ42 secreted by the cells into the culture medium” value is listed as “significant reduction”. In the series with Cln3 KO mice, the “distance of the movement in the field” value was “improve the distance and the speed of the movement”. For the same compound, the “speed of the movement in the field” value in the series with Cln3 KO mice was “improve the distance and the speed of the movement”. For the same compound, the “expression of the autophagy-related genes” value in series [5] (TTF infected with FXR shRNA-2) is given as “failed to increase”; in series [5] (control shRNA-infected TTF), “significantly increase”. For the same compound, the “transcription level of the autophagy-related genes and the lysosomal genes” value in series [5] (TTF, incubation for 6 hours) is “significantly increase”.

The record behind these values is US20250152605A1, “METHOD AND DRUG FOR TREATING NEURONAL CEROID LIPOFUSCINOSIS” (priority 2021, published 2025).
